Test results taken from patent publication US10876003B2, “Class of stable heptamethine cyanine fluorophores and biomedical applications thereof” (priority 2014, dated 2020).
Values belong to the compound of their own block, whether it stands above or below them.

Key:
[1] = methanol; James et al., Theranostics 2013; cited from earlier work
[2] = Quantum yields, molar absorption coefficients, absorbance and emission spectra; type: physicochemical; details: for ε (M^−1cm^−1): Table 4 footnote: methanol, method b204: PBS, 25° C.; for λem (nm) / λmax (nm): methanol
[3] = Maximum absorbance wavelength in pH 7.4 phosphate-buffered saline; type: physicochemical; details: for λmax: 2 μM in 0.1 M PBS
Experimental: Table 1 includes exemplary compounds according to formula II, in which n is 2, R^1 is —CH2—, m is 2, R^2 is methyl, R^14 to R^17 are methyl, and R^5, R^6, R^8, R^10, R^11 and R^13 are hydrogen. Other substituents are as indicated. The maximum absorbance wavelength (λmax) was measured in pH 7.4 phosphate-buffered saline.
Unless stated otherwise, reactions were conducted in oven-dried glassware under an atmosphere of nitrogen or argon using anhydrous solvents (passed through activated alumina columns) All other commercially obtained reagents were used as received. […] Flash column chromatography was performed using normal phase or reverse phase on a CombiFlash® Rf 200i (Teledyne Isco Inc.). […] Data for ^1H NMR spectra are reported as follows: chemical shift (6 ppm), multiplicity, coupling constant (Hz), and integration. ^13C NMR spectra were recorded on Varian spectrometers (at 100 or 125 MHz). Data for ^13C NMR spectra are reported in terms of chemical shift. IR spectra were recorded on a JASCO FT/IR 4100 spectrometer and are reported in terms of frequency of absorption (cm^−1). High-resolution LC/MS analyses were conducted on a Thermo-Fisher LTQ-Orbitrap-XL hybrid mass spectrometer system with an Ion MAX API electrospray ion source in positive ion mode. Separations were carried out on a narrow-bore (50×2.1 mm), Zorbax Rapid-Resolution, reversed-phase C18 (3.5 μm) column with a flow rate of 250 μL/min with a 10 min, 2-90% gradient of MeCN/H2O containing 0.1% HCOOH. […] Fluorescence traces and quantum yield measurements were recorded on a PTI QuantaMaster steady-state spectrofluorimeter operated by FelixGX 4.0.3 software, with 10 nm excitation and emission slit widths, 0.1 s integration rate, and enabled emission correction.

[4] = type: physicochemical; details: buffer, pH 7.4
Experimental: Solutions of commercially available IRDye 800 CW (a phenol-substituted heptamethine cyanine available from Li-Cor Biotechnology, Lincoln, Nebr.) and compound 13 (Glut-Cy-503), 10 μM, were prepared in pH 7.4 phosphate-buffered saline and exposed to physiologically relevant concentrations of glutathione (GSH, 1 mM) at room temperature. […] Upon analysis by LCMS, signals consistent with the glutathione adduct were observed concomitant with the disappearance of the phenol (IRDye 800 CW) (FIG. 7).

SMILES: CC1(C)C(=CC=C2CCCC(C=CC3=[N+](CCCCS(=O)(=O)[O-])c4ccccc4C3(C)C)=C2Cl)N(CCCCS(=O)(=O)[O-])c2ccccc21.[Na+] [IR783]
Φf of standard [1]: 0.084

λex [2]: 774 nm | ε (M^−1cm^−1) [2]: 187,000 M^−1cm^−1 | Φf ([2]; measured in methanol relative to ICG): 0.22 | λem (nm) [2]: 797 nm | λmax (nm) [2]: 774 nm | λmax ([3]; pH 7.4, with 20% DMSO (v/v)): 763 nm
SMILES: CCCN1/C(=C/C=C2\CCCC(/C=C/C3=[N+](CCC)c4ccccc4C3(C)C)=C2OCCN(C)C(=O)OCc2ccccc2)C(C)(C)c2ccccc21 [Compound 8]

λmax ([3]; pH 7.4, with 0.1% DMSO (v/v)): 760 nm
SMILES: CCCN1/C(=C/C=C2\CCCC(/C=C/C3=[N+](CCC)c4ccccc4C3(C)C)=C2OCCN(C)C(=O)CCCC(=O)O)C(C)(C)c2ccccc21 [Compound 10]

ε (M^−1cm^−1) [2]: 204,000 M^−1cm^−1 | λem (nm) [2]: 822 nm | λmax (nm) [2]: 785 nm
SMILES: CC1(C)C(/C=C/C=C/C=C/C=C2\N(CCCCS(=O)(=O)O)c3ccc4ccccc4c3C2(C)C)=[N+](CCCCS(=O)(=O)[O-])c2ccc3ccccc3c21 [ICG, indocyanine green, reference compound]
Φf of standard [1]: 0.078

λmax ([3]; pH 7.4, with 20% DMSO (v/v)): 765 nm
SMILES: CCCN1/C(=C/C=C2\CCCC(/C=C/C3=[N+](CCC)c4ccccc4C3(C)C)=C2OCCN(C)C(=O)OCC2c3ccccc3-c3ccccc32)C(C)(C)c2ccccc21 [Compound 9]

t1/2 of degradation to the glutathione adduct [4]: 50 min
SMILES: CC1(C)C(=CC=C2CCCC(C=CC3=[N+](CCCCCC(=O)[O-])c4ccc(S(=O)(=O)[O-])cc4C3(C)C)=C2Oc2ccc(S(=O)(=O)[O-])cc2)N(CCCCS(=O)(=O)[O-])c2ccc(S(=O)(=O)[O-])cc21.[Na+].[Na+].[Na+].[Na+] [IRDye 800 CW]

broad hypsochromic absorbance maximum ([3]; solvent not given): 687 nm
SMILES: CCCN1/C(=C/C=C2\CCCC(/C=C/C3=[N+](CCC)c4ccccc4C3(C)C)=C2N(C)CCO)C(C)(C)c2ccccc21 [Compound 6]
